From patent publication US5225607A, “Insecticidal ethers” (Imperial Chemical Industries PLC, priority 1985, dated 1993) come the findings set out here.

What all share (format): in vivo
Experiment [1] concerns Myzus persicae. The experiment is described as follows: Insecticidal test, Myzus persicae (aphids), contact. The note with it: 72 h, Chinese Cabbage leaf, 3 days, read-out: grading of mortality, MP. The procedure: (§1) The activity of the Product was determined using a variety of insect and acarine pests. The Product was used in the form of liquid preparations containing 500, 250 or 100 parts per million (ppm) by weight of the Product. The preparations were made by dissolving the Product in acetone and diluting the solutions with water containing 0.01% by weight of a wetting agent sold under the trade name "LISSAPOL" NX until the liquid preparations contained the required concentratio of the Product. "Lissapol" is a Registered Trade Mark.
(§2) The test procedure adopted with regard to each pest was basically the same and comprised supporting a number of the pests on a medium which was usually a host plant or a foodstuff on which the pests feed, and treating either or both the pests and the medium with the preparations. The mortality of the pests was then assessed at periods usually varying from one to three days after the treatment.
(§3) The results of the tests are given in Table IV for each of the Products, at the rate in parts per million given in the second column as a grading of mortality designated as A, B or C wherein A indicates 80-100% mortality or knockdown (70-100% in the case of Spodoptera exigua), B indicates 50-79% mortality or knockdown (50-69% in the case of Spodoptera exigua) and C indicates less than 50% mortality or knockdown.
(§4) In Table IV the pest organism used is designated by a letter code and the pest species, the support medium or food, and the type and duration of test is given in Table III.

Experiment [2] deals with Blattella germanica. The experiment is described as follows: Insecticidal test, Blattella germanica (cockroach nymphs), residual. The note with it: 72 h, plastic pot, 3 days, read-out: grading of mortality, BG. The procedure:
as §1, §2, §3, §4

Experiment [3] has as its system Musca domestica. The experiment is described as follows: Knockdown test, Musca domestica (houseflies - adults). The note with it: cotton wool/sugar, 4 hours, read-out: grading of knockdown, MD/KD. On the procedure: as §1, §2
In the case of the species Musca domestica (housefly), additional tests to determine the knockdown effect of the compounds were performed.
as §3, §4

Experiment [4] relates to Heliothis virescens. The experiment is described as follows: whole plant or invertebrate. The note with it: in Gossypium hirsutum, 72 h, read-out: grading of mortality, HV. On the procedure: as §1, §2, §3, §4
The subject of experiment [5] is Tetranychus urticae. Description: Insecticidal/acaricidal test, Tetranychus urticae (spider mites - adult), contact. The note with it: 72 h, French bean leaf, 3 days, read-out: grading of mortality, TU. On the procedure: as §1, §2, §3, §4
The subject of experiment [6] is Musca domestica. The experiment is described as follows: Insecticidal test, Musca domestica (houseflies - adults), contact. To be noted: 24 h, cotton wool/sugar, 1 day, read-out: grading of mortality, MD. The procedure:
as §1, §2, §3, §4

Experiment [7] relates to Nilaparvata lugens. Description: Insecticidal test, Nilaparvata lugens (brown planthopper), contact. To be noted: 72 h, Cabbage leaf, 3 days, read-out: grading of mortality, NL. On the procedure:
as §1, §2, §3, §4

Experiment [8] concerns Diabrotica balteata. Description: Insecticidal test, Diabrotica balteata (rootworm larvae), residual. To be noted: 72 h, filter paper/maize seed, 3 days, read-out: grading of mortality, DB. On the procedure: as §1, §2, §3, §4

Regarding `CCOc1ccc(C(COCc2cccc(Oc3ccccc3)c2)C(F)(F)F)cc1` (centres unmarked) [Compound 1, 1,1,1-trifluoro-2-(4-ethoxyphenyl)-3-(3-phenoxybenzyloxy)propane], the mortality at 500 ppm in experiment [1], in experiment [2], in experiment [4], in experiment [5], in experiment [6] and in experiment [7] was 80 to 100% in each case. The mortality (usually the share of the test organisms that died) at 500 ppm in experiment [8] was 80 to 100%. In addition, the pest or weed control at 500 ppm in experiment [3] lay in the range of 80 to 100%.
Take `CCOc1ccc(C(COCc2c(F)c(F)c(C)c(F)c2F)C(F)(F)F)cc1` (centres unmarked) [Compound 2, 1,1,1-Trifluoro-2-(4-ethoxyphenyl)-3-(4-methyl-2,3,5,6-tetrafluorobenzyloxy)propane]: the mortality at 500 ppm in experiment [1] is 50 to 79%; in experiment [2] it was 80 to 100%; in experiment [4], less than 50%; in experiment [5], less than 50%; in experiment [6], 50 to 79%; in experiment [7], 80 to 100%. In addition, the mortality at 500 ppm in experiment [8] was in the range of 80 to 100%. Moreover, in experiment [3], the pest or weed control at 500 ppm was less than 50%.
Consider `CCOc1ccc(C(COCc2cccc(Oc3ccc(Cl)cc3)c2)C(F)(F)F)cc1` (centres unmarked) [Compound 3, 1,1,1-Trifluoro-2-(4-ethoxyphenyl)-3-(3-(4-chlorophenoxy)benzyloxy)propane], for which the mortality at 250 ppm in experiment [1] was 80 to 100%; in experiment [2] it was 80 to 100%; in experiment [4] it was less than 50%; in experiment [5], less than 50%; in experiment [6], 80 to 100%; in experiment [7] it was 80 to 100%. Besides, the mortality at 250 ppm in experiment [8] lay in the range of 80 to 100%. Besides, the pest or weed control at 250 ppm in experiment [3] lay within 80 to 100%.
For the compound `CCOc1ccc(C(COCc2ccc(F)c(Oc3ccc(Cl)cc3)c2)C(F)(F)F)cc1` (centres unmarked) [Compound 5, 1,1,1-Trifluoro-2-(4-ethoxyphenyl)-3-(3-(4-chlorophenoxy)4-fluorobenzyloxy)propane], the mortality at 500 ppm in experiment [1] fell in the range of 80 to 100%; in experiment [2], 80 to 100%; in experiment [4], 80 to 100%; in experiment [5], 50 to 79%; in experiment [6], 80 to 100%; in experiment [7] it was 80 to 100%. Also, in experiment [8], the mortality at 500 ppm was in the range of 80 to 100%. In experiment [3], the pest or weed control at 500 ppm fell in the range of 80 to 100%.
`CCOc1ccc(C(COCc2ccc(F)c(Oc3ccc(Br)cc3)c2)C(F)(F)F)cc1` (centres unmarked) [Compound 6, 1,1,1-Trifluoro-2-(4-ethoxyphenyl)-3-(3-(4-bromophenoxy)-4-fluorobenzyloxy)propane]: the mortality at 500 ppm in experiment [1], in experiment [2], in experiment [4], in experiment [5], in experiment [6] and in experiment [7] was 80 to 100% throughout. Moreover, the mortality at 500 ppm in experiment [8] lay within 80 to 100%. The pest or weed control at 500 ppm in experiment [3] fell in the range of 80 to 100%.
Turning to `CCOc1ccc(C(COCc2cccc(-c3ccccc3)c2C)C(F)(F)F)cc1` (centres unmarked) [Compound 7, 1,1,1-Trifluoro-2-(4-ethoxyphenyl)-3-(2-methyl-3-phenylbenzyloxy)propane], the mortality at 500 ppm in experiment [1] is 80 to 100%; in experiment [2], 80 to 100%; in experiment [4], less than 50%; in experiment [5], 80 to 100%; in experiment [6], 80 to 100%; in experiment [7], 80 to 100%. Besides, the mortality at 500 ppm in experiment [8] is 80 to 100%. Also, in experiment [3], the pest or weed control at 500 ppm was 80 to 100%.
In the case of `CCOc1ccc(C(COCc2cccc(Oc3ccc(Br)cc3)c2)C(F)(F)F)cc1` (centres unmarked) [Compound 9, 1,1,1-Trifluoro-2-(4-ethoxyphenyl)-3-(3-(4-bromophenoxy)benzyloxy)propane], the mortality at 250 ppm in experiment [1] was less than 50%; in experiment [2], 80 to 100%; in experiment [4] it was 80 to 100%; in experiment [5], 50 to 79%; in experiment [6], 80 to 100%; in experiment [7], less than 50%. In experiment [8], the mortality at 250 ppm lay in the range of 80 to 100%. Moreover, the pest or weed control at 250 ppm in experiment [3] fell in the range of 80 to 100%.
`Fc1ccc(COCC(c2ccc(Cl)cc2)C(F)(F)F)cc1Oc1ccccc1` (centres unmarked) [Compound 15]: the mortality at 500 ppm in experiment [1], in experiment [2], in experiment [5], in experiment [6], in experiment [7] and in experiment [8] was 80 to 100% in each case. In addition, the pest or weed control at 500 ppm in experiment [3] is 80 to 100%.
Turning to `CCOc1ccc(C(Cl)(COCc2ccc(F)c(Oc3ccc(Br)cc3)c2)C(F)(F)F)cc1` (centres unmarked) [Compound 43, 1,1,1-Trifluoro-2-chloro-2-(4-ethoxyphenyl)-3-(3-(4-bromophenoxy)-4-fluorobenzyloxy)propane], the mortality at 500 ppm was 80 to 100% in experiment [1]; 50 to 79% in experiment [2]; 50 to 79% in experiment [5]; 80 to 100% in experiment [6]; 80 to 100% in experiment [7]; less than 50% in experiment [8]. The pest or weed control at 500 ppm in experiment [3] lay within 80 to 100%.
As to `Fc1ccc(COCC(F)(c2ccc(Cl)cc2)C(F)(F)F)cc1Oc1ccccc1` (centres unmarked) [Compound 81, 1,1,1,2-tetrafluoro-2-(4-chlorophenyl)-3-(3-phenoxy-4-fluorobenzyloxy)propane], the mortality at 500 ppm is 80 to 100% in experiment [1]; 80 to 100% in experiment [2]; less than 50% in experiment [5]; 80 to 100% in experiment [6]; 80 to 100% in experiment [7]; 80 to 100% in experiment [8]. Moreover, the pest or weed control at 500 ppm in experiment [3] lay within 80 to 100%.
As to `CCOc1ccc(C(O)(COCc2ccc(F)c(Oc3ccc(Br)cc3)c2)C(F)(F)F)cc1` (centres unmarked) [Compound 116, 1,1,1-Trifluoro-2-(4-ethoxyphenyl)-3-(3-(4-bromophenoxy)-4-fluorobenzyloxy)propan-2-ol], the mortality at 500 ppm in experiment [1] is less than 50%; in experiment [2] it was less than 50%; in experiment [5] it was 80 to 100%; in experiment [6], 50 to 79%; in experiment [7], less than 50%; in experiment [8], less than 50%. In addition, the pest or weed control at 500 ppm in experiment [3] lay in the range of 50 to 79%.
Consider `OC(COCc1ccc(F)c(Oc2ccccc2)c1)(c1ccc(Cl)cc1)C(F)(F)F` (centres unmarked) [Compound 126, 1,1,1-Trifluoro-2-(4-chlorophenyl)-3-(3-phenoxy-4-fluorobenzyloxy)propan-2-ol], for which the mortality at 500 ppm in experiment [1] is less than 50%; in experiment [2], less than 50%; in experiment [5] it was 80 to 100%; in experiment [6], less than 50%; in experiment [7] it was less than 50%; in experiment [8] it was less than 50%. Further, the pest or weed control at 500 ppm in experiment [3] lay within 80 to 100%.
For `CCOc1ccc(C(COCc2ccc(F)c(Oc3ccccc3)c2)(OC)C(F)(F)F)cc1` (centres unmarked) [Compound 150, 1,1,1-trifluoro-2-methoxy-2-(4-ethoxyphenyl)-3-(3-phenoxy-4-fluorobenzyloxy)propane], the mortality at 250 ppm is 50 to 79% in experiment [1]; less than 50% in experiment [2]; 80 to 100% in experiment [4]; less than 50% in experiment [6]; less than 50% in experiment [7]; 80 to 100% in experiment [8]. Also, the pest or weed control at 250 ppm in experiment [3] is less than 50%.
